pKi: −log10 of the molar value. In brackets after ≈: the same amount, converted by molar mass.
Tests used:
[1] = target: petunia EPSP synthase with alanine for the first glycine of the conserved region (Petunia hybrida, UniProt P11043, G170A); assay: Glyphosate sensitivity of EPSP synthase variant; format: biochemical; conditions: relative to wild type
[2] = target: wild type petunia EPSP synthase (Petunia hybrida, UniProt P11043); assay: EPSP synthase kinetic constants (appKi glyphosate, appKm PEP); format: biochemical
Chain of wild type petunia EPSP synthase (P11043 73-516): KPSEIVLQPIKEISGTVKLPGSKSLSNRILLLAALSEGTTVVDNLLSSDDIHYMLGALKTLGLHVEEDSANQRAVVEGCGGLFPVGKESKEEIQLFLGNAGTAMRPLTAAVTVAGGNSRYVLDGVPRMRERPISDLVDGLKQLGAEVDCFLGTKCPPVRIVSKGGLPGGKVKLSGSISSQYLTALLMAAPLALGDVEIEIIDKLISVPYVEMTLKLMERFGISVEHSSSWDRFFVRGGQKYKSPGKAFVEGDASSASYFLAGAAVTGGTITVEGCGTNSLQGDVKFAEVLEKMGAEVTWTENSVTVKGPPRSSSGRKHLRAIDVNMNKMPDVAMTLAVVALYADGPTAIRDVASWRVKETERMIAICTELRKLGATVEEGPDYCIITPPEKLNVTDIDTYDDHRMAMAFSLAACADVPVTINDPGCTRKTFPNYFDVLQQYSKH
Description: The reaction was quenched by the addition of 50 μl of 50 μl of 90% ethanol/0.1M acetic acid, pH 4.5. 70 μl of the reaction mixture was loaded on a SynchroPak AX100 HPLC column (0.4×25 cm) and the column was eluted with 0.5M potassium phosphate, pH 5.5 at 1 ml/min. The radioactivity of the eluent was monitored using a Radiomatic Flo-One Beta Instrument. […] The protein content of the extract was determined by the method of Bradford (Biorad Labs, Calif.). The specific activity of the extract is expressed as nanomoles of EPSP synthase formed/min/mg protein.

[3] = system: E. coli SR481 (aroA-) carrying pMON8152; assay: Growth on minimal medium containing glyphosate; format: cell-based
Description: The heterologous expression system was tested with a known variant to see if glyphosate resistant variants of petunia EPSPS could be selected. […] That was achieved by replacing the 660 bp EcoRI-HindIII region from both vectors with the 660 bp EcoRI-HindIII region from pMON9566 which contained the glycine (101) to alanine mutation.

[4] = system: petunia leaf disks transformed with pMON546 (CaMV35S/EPSP synthase gene); assay: Leaf disk callus growth on glyphosate media; format: cell-based; conditions: within 10 days
Description: (§1) Leaf disks with diameters of 6 mm (1/4 inch) were taken from surface-sterilized petunia leaves. They were cultivated on MS104 agar medium for 2 days to promote partial cell wall formation at the wound surfaces. They were then submerged in a culture of A. tumefaciens cells containing both pMON546 and GV3111-SE which had been grown overnight in Luria broth at 28° C., and shaken gently. The cells were removed from the bacterial suspension, blotted dry, and incubated upside down on filter paper placed over "nurse" cultures of tobacco cells, as described by Horsch (1980). After 2 or 3 days, the disks were transferred to petri dishes containing MS media with 500 μg/ml carbenicillin and 0. 0.1, 0.25, or 0.5 mM glyphosate (sodium salt), with no nurse cultures.
(§2) Control tissue was created using A. tumefaciens cells containing the helper plasmid pGV3111-SE and a different plant transformation vector, pMON505, which contained a T-DNA region with a NOS/NPTII/NOS kanamycin resistance gene and a NOS selectable marker gene identical to pMON546, but without the CaMV35S/EPSP synthase gene.

[5] = system: control petunia leaf disks (pMON505); assay: Leaf disk callus growth on glyphosate media; format: cell-based; conditions: within 10 days
Description: as §1, §2

[6] = target: variant maize preenzyme product of pMON8617 (glycine to alanine and glycine to aspartate) (Zea mays, UniProt A0A1D6NVZ6, G163A/G206D); assay: EPSP synthase activity of in vitro translation product; format: biochemical
Chain of variant maize preenzyme product of pMON8617 (glycine to alanine and glycine to aspartate) (A0A1D6NVZ6 entry or part of it G163A/G206D): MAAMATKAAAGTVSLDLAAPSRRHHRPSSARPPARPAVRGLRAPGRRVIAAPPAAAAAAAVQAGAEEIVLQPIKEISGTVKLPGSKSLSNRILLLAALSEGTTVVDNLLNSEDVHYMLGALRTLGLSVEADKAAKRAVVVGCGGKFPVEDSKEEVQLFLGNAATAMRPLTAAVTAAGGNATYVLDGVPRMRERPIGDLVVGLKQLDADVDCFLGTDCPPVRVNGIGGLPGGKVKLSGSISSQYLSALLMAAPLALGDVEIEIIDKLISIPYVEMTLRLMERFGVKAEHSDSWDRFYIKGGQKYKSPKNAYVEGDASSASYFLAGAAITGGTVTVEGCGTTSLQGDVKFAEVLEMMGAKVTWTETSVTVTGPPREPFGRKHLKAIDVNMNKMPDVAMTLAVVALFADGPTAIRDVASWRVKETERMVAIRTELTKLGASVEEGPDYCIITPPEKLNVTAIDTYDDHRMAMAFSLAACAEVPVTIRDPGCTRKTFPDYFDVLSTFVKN
Description: (§3) To an assay mix (40 μl) containing shikimate-3-phosphate (2 mM), ^14 C-phosphoenolpyruvate (1 mM, 1.2 mCi/mmol), ammonium molybdate (0.1 mM), potassium fluoride (5 mM) in 50 mM HEPES-KOH, pH 7, was added the extract and incubated at 25° C. for 2 mins. The reaction was quenched by the addition of 50 μl of 50 μl of 90% ethanol/0.1M acetic acid, pH 4.5. 70 μl of the reaction mixture was loaded on a SynchroPak AX100 HPLC column (0.4×25 cm) and the column was eluted with 0.5M potassium phosphate, pH 5.5 at 1 ml/min. The radioactivity of the eluent was monitored using a Radiomatic Flo-One Beta Instrument. (Radiomatics, Fla.). The EPSP synthase activity was determined by measurement of the conversion of ^14 C-PEP to ^14 C-EPSP synthase, both of which are resolved under the above conditions of chromatography. The protein content of the extract was determined by the method of Bradford (Biorad Labs, Calif.). The specific activity of the extract is expressed as nanomoles of EPSP synthase formed/min/mg protein.
(§4) The linearized plasmid DNA was transcribed in vitro with T7 polymerase essentially as described by Krieg et al. (1984). The standard reaction buffer contained 40 mM Tris-HCl (pH 7.9), 6 mM MgCl2, 10 mM dithiothreitol, 2 mM spermidine, 80 U RNAsin ribuonuclease inhibitor, 0.5 mM each of ATP, GTP, CTP and UTP, in a final reaction volume of 100 μl. The final RNA pellet was resuspended in 20 μl of sterile water and stored at -80° C. A standard translation reaction contained 100 μl of nuclease-treated rabbit reticulocyte lysate, 5.7 μl of a 19-amino acid mixture (minus methionine) at 1 mM each, 5.7 μl of RNA (total RNA transcripts derived from 0.63 μg of plasmid DNA), 16 μl RNAsin (20U/μl) ribonuclease inhibitor, and 58.3 μl of [^35 S] methionine (14-15 mCi/ml). The in vitro translation products were stored frozen at -80° C.
(§5) The products of the in vitro translation were then assayed for EPSP synthase activity as described herein.

[7] = target: wild type maize pre-EPSP synthase (pMON9951 product) (Zea mays, UniProt A0A1D6NVZ6); assay: as above; format: biochemical; conditions: 1.0 mM glyphosate
Chain of wild type maize pre-EPSP synthase (pMON9951 product) (A0A1D6NVZ6 1-506): as the sequence (A0A1D6NVZ6 entry or part of it G163A/G206D) above, with A163G, D206G counted along it
Description: as §3, §4, §5

[8] = target: T1, variant petunia EPSP synthase with glycine (101) to alanine and glycine (144) to asparagine substitutions (Petunia hybrida, UniProt P11043, G173A/G216N); assay: EPSP synthase kinetic constants (Ki glyphosate, Km PEP); format: biochemical
T1 construct: GGT codon for glycine (144) in the mature petunia EPSP synthase
T1 sequence (P11043 73-516 G173A/G216N): as the sequence (P11043 73-516) above, with G101A, G144N counted along it
Description: Kinetic constants (appKm PEP and appKi glyphosate) were determined for EPSP synthase as described below. Substrate kinetic parameters were determined at pH 7.0 in 50 mM HEPES (N-[2-hydroxyethyl]piperazine-N'-[2-ethanesulfonic acid]) buffer in the presence of 2 mM S3P and varying amounts of ^14 C-PEP (10 μM-400 μM), for 2.0 minutes at 25° C. Reactions were quenched with 100 mM Na Acetate in ethanol, pH 4.5, centrifuged and analyzed for product EPSP formation by HPLC with flow radioactivity detection. HPLC conditions were 0.35 MKPi, pH 6.5, on a Synchropak AX100 column at 1.0 ml/min.

[9] = system: variant soybean EPSPS (gly 104 to ala, gly 147 to asp) from pMON9953; assay: Glyphosate tolerance of EPSP synthase extracted from bacteria; format: biochemical, Glycine max; conditions: enzyme extracted from E. coli SR481 with pMON9953
Excerpt: An E. coli expression vector for wild type soybean EPSPS was constructed by engineering an NcoI site at the predicted start of the mature soybean coding sequence by the method of Kunkel (1985). This sequence was then inserted into pMON9563, replacing the coding sequence for mature petunia EPSPS resulting in pMON9904.

[10] = system: E. coli JM101 culture #215 (pMON8186); assay: Growth curve analysis in liquid MOPS medium with glyphosate; format: cell-based; conditions: MOPS medium containing 10 mM glyphosate, 37° C.
Description: This growth curve analysis functioned as a tertiary screen and was performed in the following way:
Glyphosate resistant colonies were picked off the selection plates and inoculated individually into precultures containing 1 ml of MOPS medium and 50 μg/ml carbenicillin. The precultures were then grown to saturation by shaking the cultures overnight at 37° C. The next morning the density of each culture was determined by withdrawing a 100 μl aliquot from each and diluting it 10 fold with the addition of 900 μl MOPS medium, then reading the optical density at a wavelength of 660 nm in a spectrophotometer. The saturated precultures were then diluted to 1% by adding 50 μl from each saturated preculture to 5 ml of MOPS media containing 0, 5 or 10 mM glyphosate. The diluted precultures were grown in glass culture tubes fitted with stainless steel closures, rotating on a wheel at 37° C. The glass culture tubes were designed for direct reading in a Klett-Summerson photoelectric colorimeter, which was used to monitor the growth of the bacterial cultures at approximately 3 hour intervals.

E. coli strain JM101 = assay: Growth on minimal medium plates with increasing glyphosate; format: cell-based; conditions: Escherichia coli, read-out: glyphosate concentration that inhibits endogenous EPSP synthase activity and growth on minimal media
Excerpt: A multi-step screening procedure was used to identify glyphosate resistant variants of petunia EPSPS.

[11] = 0.1 mM glyphosate (sodium salt)
[12] = 0.25 mM glyphosate (sodium salt)
[13] = 0.5 mM glyphosate (sodium salt)

Chain of petunia EPSP synthase with alanine for the first glycine of the conserved region (P11043 73-516 G170A): as the sequence (P11043 73-516) above, with G98A counted along it

O=C(O)CNCP(=O)(O)O [glyphosate, N-phosphonomethylglycine]
change in glyphosate sensitivity [1]: no attendant changes in glyphosate sensitivity
pKi [2]: 6.40
glyphosate concentration up to which growth on minimal medium is supported [3]: up to 50 mM
callus growth [4, 11]: little detectable difference between the control disks and the transformed tissue
callus growth [4, 12]: substantial growth of transformed tissue
callus growth [4, 13]: a significant number of calli grew
callus growth [5, 11]: little detectable difference between the control disks and the transformed tissue
callus growth [5, 12]: very little growth of callus
callus growth [5, 13]: no callus growth
inhibition of EPSP synthase activity ([6]; 1 mM glyphosate): only slight inhibition
inhibition of EPSP synthase activity ([6]; 100 mM glyphosate): greater inhibition, but still showing detectable activity
EPSP synthase activity in the presence of glyphosate [7]: no activity was detected
Ki for glyphosate [8]: 960 µM
Ki/Km ([8]; Ki glyphosate / Km PEP): 10.5
glyphosate tolerance of extracted EPSP synthase [9]: glyphosate tolerant
time of growth to saturation [10]: ≤ 11 h
MIC (E. coli strain JM101): 2000 µM (≈ 338 µg/mL)

From patent US5310667A (priority 1989, dated 1994)
